Counter-ions that a name gives are not always drawn.
System: HCT116
Assay: efficacy (fitted maximal change in viability relative to DMSO control); higher = less cytotoxic (negative = loss of viability)
Details: 48 h
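Further: Luminescence-based viability readout, five doses per compound, normalized against on-plate DMSO and empty-well controls, followed by dose-response curve fitting for every drug.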

Compound	efficacy
CCN(c1ccccc1)c1cc(NC)[n+](C)c(C)n1 [ICI-D7288]	-13%
Cc1ccccc1C(C(=O)NC1CCCCC1)N(C(=O)Cn1ccnc1C)c1cccc(F)c1 (stereo not drawn) [AGI-5198]	-18.4%
CC(C)NCC(O)COc1ccc(CCOCC2CC2)cc1 (stereo not drawn) [Betaxolol]	-9.42%
C[C@]12CCC3c4ccc(O)cc4CCC3C1CCC2=O (stereo partly drawn) [Estrone]	-24.4%
CN(C)CCc1c[nH]c2ccc(C[S+](=O)([O-])N3CCCC3)cc12 [Almotriptan]	-6.46%
CC(=O)N[C@H]1[C@H](O[C@@H]2c3ccc(c(Cl)c3)Oc3cc4cc(c3O[C@@H]3O[C@H](CO)[C@@H](O)[C@H](O)[C@H]3NC(=O)CCCCCCCC(C)C)Oc3ccc(cc3Cl)C[C@H]3NC(=O)[C@H](N)c5ccc(O)c(c5)Oc5cc(O)cc(c5)[C@H](NC3=O)C(=O)N[C@H]4C(=O)N[C@H]3C(=O)N[C@@H]2C(=O)N[C@@H](C(=O)O)c2cc(O)cc(O[C@H]4O[C@H](CO)[C@@H](O)[C@H](O)[C@@H]4O)c2-c2cc3ccc2O)O[C@H](CO)[C@@H](O)[C@@H]1O [Teicoplanin]	-14.5%
O=C(O)c1ccc(CCCc2ccc(OCCc3ccc(F)cc3)cc2)o1 [D-942]	-66.5%
O=C(/C=C/N1C[C@H]2C[C@@H]1CN2c1ccccn1)c1ccccc1O [PFI-3]	-9.44%
Cc1cnc(-c2cc(N3CCN(C(=O)CC[S+](C)(=O)[O-])CC3)ncc2Cl)c(C)c1	-93.8%
CCN(CC)C(=O)Cc1csc(N[S+](=O)([O-])c2cccc(Cl)c2C)n1	-27.3%
C[C@]12CC(=O)[C@H]3[C@@H](CC\C4=C\C(=O)\C=C/[C@]34C)[C@@H]1CC[C@]2(O)C(=O)CO [Prednisone]	8.5%
CN(C(=O)c1ccc(F)cc1C(F)(F)F)C1CCN(c2nnc(-c3ccnn3C)c3ccccc23)CC1 [Taladegib]	-25.6%
C/C1=C2/[N]3[Co+]456([OH])<-[N]7=C1[C@@H](CCC(N)=O)C(C)(C)/C7=C/C1=[N]->4C(=C(/C)C4=[N]->5[C@@](C)([C@H]3[C@H](CC(N)=O)[C@@]2(C)CCC(=O)NC[C@@H](C)OP(=O)([O-])O[C@H]2[C@@H](O)[C@@H](n3c[n]->6c5cc(C)c(C)cc53)O[C@@H]2CO)[C@@](C)(CC(N)=O)[C@@H]4CCC(N)=O)/[C@@](C)(CC(N)=O)[C@@H]1CCC(N)=O [Hydroxocobalamin]	-39.6%
CCCCNc1cc(C(=O)O)cc([S+](N)(=O)[O-])c1Oc1ccccc1 [Bumetanide]	-7.8%
COCCOC1=CN=C2\C=C/N([C@H](C)C3=NN=C4[N]3C=C(C=C4F)C5=C[N](C)N=C5)C(=O)C2=C1 [AMG-337]	-4.95%
NC[C@H](O)c1ccc(O)c(O)c1 [Noradrenaline bitartrate monohydrate]	10.7%
CNc1nc(Nc2ccc(C(=O)N3CCOCC3)cc2OC)ncc1Cl [Hg-10-102-01]	-12.2%
C1Cc2[nH]nc(-c3nn[nH]n3)c2C1 [MK-0354]	-7.85%
CC(C)C(=O)Nc1ccc([N+](=O)[O-])c(C(F)(F)F)c1 [Flutamide]	-14.3%
OC1=CC2=C(C(=C1)O)C(=O)\C=C(/O2)C3=CC(=C(O)C=C3)O [Digitoflavone]	-77.5%
C[C@H]1CNCCCN1[S+](=O)([O-])c1cccc2cncc(F)c12 [Ripasudil]	-11%
CCCC\1=C(/CNC(=O)C2=CC(=CC3=C2C=N[N]3C(C)C)C4=CC=C(N=C4)N5CCN(CC5)C(C)C)C(=O)NC(=C1)\C [UNC-1999]	-25.5%
Cc1ccc([S+](=O)([O-])OCC(=O)Nc2ccc(C(=O)O)c(O)c2)cc1 [S31-201]	-5.21%

Compound	efficacy
Cn1c(=O)c2[nH]cnc2n(C)c1=O [Theophyllamine]	-11.6%
COc1cccc(Nc2c(C(N)=O)cnc3c(C)cc([S+](=O)([O-])c4cccc(C(=O)N(C)C)c4)cc23)c1	-45.1%
COc1cc(OCc2cccc(-c3ccccc3)c2C)cc(OC)c1CN1CCCC[C@H]1C(=O)O [PD-1/PD-L1 Inhibitor 1]	-62%
CCn1nc(C2CCN(C(=O)CCO)CC2)nc1-c1cnc(N)c(-c2nnc(C(C)(C)C)o2)n1 [AZD-8835]	-18.9%
CN[C@@H]1CN(C[C@H]1OC)C2=NC3=C(C=C2)C(=O)C(=C\N3C4=NC=CS4)/C(O)=O [Vosaroxin]	-17.8%
COc1ccc2[nH]c([S+]([O-])Cc3ncc(C)c(OC)c3C)nc2c1 (stereo not drawn) [Omeprazole]	-17.5%
C#C[C@]1(O)CC[C@H]2[C@@H]3CCc4cc(O)ccc4[C@H]3CC[C@@]21C [Ethinylestradiol]	-54.2%
OC(=O)\C1=C\N(C2=CC=C(F)C=C2)C3=C(C=C(F)C(=C3)N4CCNCC4)C1=O [Sarafloxacin hydrochloride]	14%
C[C@@H]1CC[C@@]2(CC[C@]3(C)\C(=C/C[C@@H]4[C@@]5(C)CC[C@H](O)C(C)(C)[C@@H]5CC[C@@]34C)[C@@H]2[C@H]1C)C(O)=O [Ursolic acid]	6.32%
Cn1cc(-c2ccc3c(c2)CCN3C(=O)Cc2cccc(C(F)(F)F)c2)c2c(N)ncnc21	-17.9%
OCc1ccc(-c2nn(Cc3ccccc3)c3ccccc23)o1 [Lificiguat]	-57.1%
COC1=C2C[C@H](C)C[C@H](OC)[C@H](O)[C@@H](C)/C=C(/C)[C@H](OC(N)=O)[C@@H](OC)/C=C\C=C(\C)C(=O)NC(=CC1=O)C2=O [Geldanamycin]	-57.3%
CC(C)N(CCCNC(=O)Nc1ccc(C(C)(C)C)cc1)C[C@H]1O[C@@H](n2ccc3c(N)ncnc32)[C@H](O)[C@@H]1O	-31.1%
CNC(=O)[C@H](Cc1c[nH]c2ccccc12)NC(=O)[C@@H](CC(=O)NO)CC(C)C [Ilomastat (GM6001, Galardin)]	-7.39%
CN1\C(=C(\O)C2=C(C=CS2)[S+]1([O-])=O)C(=O)NC3=CC=CC=N3 [Tenoxicam]	-10.7%
CC(C)CC(=O)N[C@H](C(=O)N[C@H](C(=O)N[C@@H](CC(C)C)[C@@H](O)CC(=O)N[C@@H](C)C(=O)N[C@@H](CC(C)C)[C@@H](O)CC(=O)O)C(C)C)C(C)C [Pepstatin]	-6.41%
O=C1CCC(N2C(=O)c3ccccc3C2=O)C(=O)N1 (stereo not drawn) [Thalidomide]	-16.7%
CCOc1cc(CC(=O)N[C@@H](CC(C)C)c2ccccc2N2CCCCC2)ccc1C(=O)O [Repaglinide]	-23%
CC(C)(Sc1ccc(CCN(CCCCC2CCCCC2)C(=O)NC2CCCCC2)cc1)C(=O)O [GW-7647]	-45.1%
C[C@@]1(C(=O)Nc2ccc(F)nc2)CCCN1c1nc(Nc2cc(C3CC3)[nH]n2)c2cccn2n1	-59.3%
Nc1cccc2c1C(=O)N(C1CCC(=O)NC1=O)C2=O (stereo not drawn) [Pomalidomide]	-14.1%
C\C1=C(\C=C(\C#N)C(=O)N1)C2=CC=NC=C2 [Milrinone]	-8.82%
O=C(NC[C@H](O)CN1CCc2ccccc2C1)c1ccnc(NC2CCC2)c1	-5.9%

Compound	efficacy
N/C1=N/C(=O)C/2=C(NC[C@@H](CNC3=CC=C(C=C3)C(=O)N[C@@H](CCC([O-])=O)C([O-])=O)N2C=O)\N1 [Calcium folinate]	-9.49%
CCC[C@@H]1C[C@@H](C(=O)N[C@@H]([C@H]2O[C@H](SC)[C@H](O)[C@@H](O)[C@H]2O)[C@H](C)Cl)N(C)C1 [Clindamycin HCl]	-14.1%
C[C@@H]1[C@H]\2[C@H](O)[C@H]3[C@H](N(C)C)\C(=C(C(N)=O)/C(=O)[C@@]3(O)\C(=C2C(=O)C4=C(O)C=CC=C14)O)O [Doxycycline]	12.1%
CC1=CC=C2N=C(NC(=O)CS\C3=N\C4=C(\SCC4)C(=O)N3C5=CC=CC=C5)SC2=C1 [IWP-2]	-12.9%
Cc1onc(-c2ccc(F)cc2)c1COc1ccc(C(=O)N2CC[S+](=O)([O-])CC2)cn1 [Basmisanil]	-18.7%
CC1=C(/C=C/C(C)=C/C=C/C(C)=C/C(=O)O)C(C)(C)CCC1 [Tretinoin]	-22.5%
CN[C@@H](C)C(=O)N[C@H]1CN(C(=O)CC(C)C)CC[C@H]2CC[C@@H](C(=O)NC(c3ccccc3)c3ccccc3)N2C1=O [AT-406]	-8.4%
OC[C@H]1O[C@H]([C@H](O)[C@@H](O)[C@@H]1O)C2=C(O)C=CC3=C2O/C=C(C3=O)/C4=CC=C(O)C=C4 [Puerarin]	-15.8%
CC(C)(C)C#Cc1cc(N(C(=O)[C@H]2CC[C@H](C)CC2)[C@H]2CC[C@@H](O)CC2)c(C(=O)O)s1 [VX-222]	-59.3%
COc1cc2c(cc1OC)CC(=O)N(CCCN(C)C[C@H]1Cc3cc(OC)c(OC)cc31)CC2 [Ivabradine hydrochloride]	-21.3%
O=C(O)c1ccccc1-c1ccc(/C=c2\sc3nc4cc(Br)cnc4n3c2=O)o1 [ML-119]	-9.89%
Cc1noc(-c2ccc(-c3ccc(C4(C(=O)O)CC4)cc3)cc2)c1NC(=O)O[C@H](C)c1ccccc1	-40.6%
COc1ccc(Nc2nccc(NCCO)n2)cc1 [Cardiogenol]	-11.7%
O=C(O)CC(C(=O)O)N1C(=O)/C(=C2/C(=O)Nc3ccc(Br)cc32)SC1=S (stereo not drawn) [BCL6 Inhibitor]	-11.7%
C[N]1C2=C(SC(=C2)[S+](C)[O-])C\3=C1C(=O)N(CC4=CC(=CC=C4)N)\N=C3 (stereo not drawn) [TEPP-46]	21.5%
C[C@H](NC(=O)/C(C#N)=C/c1cccc(Br)n1)c1ccccc1 [WP-1066]	-83.5%
OC[C@H]1OC(O)C[C@@H](O)[C@@H]1O (stereo partly drawn) [2-Deoxyglucose]	-11.9%
CC1OC(OC/2=C(/OC3=C(C(=CC(=C3)O)O)C2=O)C4=CC=C(O)C=C4)C(O)C(OC(C)=O)C1OC(C)=O (stereo not drawn) [SL-0101-1]	6.12%
CC#CC(=O)N1CCC[C@H]1c1nc(-c2ccc(C(=O)Nc3ccccn3)cc2)c2c(N)nccn12 [Acalabrutinib]	-13.7%
O=C1Nc2ccc(Cl)cc2[C@@](C#CC2CC2)(C(F)(F)F)O1 [Efavirenz]	-85.4%
COc1nccc(-c2c(-c3ccc(F)cc3)ncn2C2CCC(O)CC2)n1 (stereo not drawn)	-34.5%
CCC(=O)[N-]S(=O)(=O)c1ccc(-c2c(-c3ccccc3)noc2C)cc1.[Na+] [Parecoxib sodium]	-9.88%

From the supplement of paper PMC10290057
